Experimental findings from patent US20260125400A1, “TYK2 DEGRADERS AND USES THEREOF” (Kymera Therapeutics, Inc., priority 2023, published 2026) are described below.

The experiment concerns the target T1, TYK2 (Homo sapiens, UniProt P29597).
T1 construct: Degradation of TYK2 in cells was quantitatively measured using Meso Scale Discovery (MSD) technology; endogenous in cells; host or cells: OCI-LY10
Put plainly: TYK2 MSD degradation in OCI-LY10 cells. Type of experiment: cell-based. As to conditions: TYK2 degradation in OCI-LY10 cells, 4 to 24 hours incubation; for DC50: read-out: TYK2 MSD OCI-LY10 Rel-DC50. Summed up: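 OCI-LY10 cells were treated with 9-dose 1:3 series (top 1 to 10 μM final) for 4 to 24 hours at 37° C. Lysate TYK2 quantified by MSD sandwich immunoassay; DC50 and Dmax from four-parameter inhibitor vs. response fit.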

What is called Dmax is the largest share of the target that was removed. One may read the DC50 as the concentration at which degradation of the target reaches its halfway point.

T1 sequence (P29597 whole entry): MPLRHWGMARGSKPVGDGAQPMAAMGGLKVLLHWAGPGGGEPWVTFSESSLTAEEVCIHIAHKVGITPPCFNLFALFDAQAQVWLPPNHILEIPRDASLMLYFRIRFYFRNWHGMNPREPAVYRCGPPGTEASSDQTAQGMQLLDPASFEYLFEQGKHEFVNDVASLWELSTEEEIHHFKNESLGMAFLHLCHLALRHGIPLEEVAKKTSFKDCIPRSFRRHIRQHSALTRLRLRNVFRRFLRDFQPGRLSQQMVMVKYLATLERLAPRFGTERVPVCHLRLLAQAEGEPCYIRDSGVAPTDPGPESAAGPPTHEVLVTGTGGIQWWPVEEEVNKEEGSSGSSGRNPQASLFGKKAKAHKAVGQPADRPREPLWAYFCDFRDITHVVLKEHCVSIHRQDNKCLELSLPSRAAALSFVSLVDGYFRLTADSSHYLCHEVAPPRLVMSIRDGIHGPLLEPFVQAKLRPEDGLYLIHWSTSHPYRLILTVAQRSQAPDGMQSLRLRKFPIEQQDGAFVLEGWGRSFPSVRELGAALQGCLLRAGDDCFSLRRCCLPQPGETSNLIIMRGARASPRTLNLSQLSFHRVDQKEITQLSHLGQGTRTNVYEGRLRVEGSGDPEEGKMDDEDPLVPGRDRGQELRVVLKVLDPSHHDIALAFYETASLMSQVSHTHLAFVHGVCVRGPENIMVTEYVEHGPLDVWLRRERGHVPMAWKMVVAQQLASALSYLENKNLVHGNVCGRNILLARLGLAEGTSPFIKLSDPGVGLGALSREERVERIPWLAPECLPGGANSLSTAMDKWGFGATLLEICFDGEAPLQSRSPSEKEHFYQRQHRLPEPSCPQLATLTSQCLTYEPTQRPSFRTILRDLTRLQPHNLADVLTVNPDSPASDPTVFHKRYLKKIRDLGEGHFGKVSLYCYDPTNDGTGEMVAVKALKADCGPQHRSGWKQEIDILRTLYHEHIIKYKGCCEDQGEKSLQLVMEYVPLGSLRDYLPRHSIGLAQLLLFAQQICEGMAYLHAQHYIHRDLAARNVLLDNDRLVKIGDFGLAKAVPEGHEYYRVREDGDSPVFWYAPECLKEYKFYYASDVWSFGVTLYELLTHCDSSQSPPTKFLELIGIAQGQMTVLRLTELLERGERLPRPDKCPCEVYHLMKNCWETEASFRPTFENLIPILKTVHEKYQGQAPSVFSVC

`CNC(=O)c1cnc(Nc2ccc(C(=O)NCCOCCOCCOCCOCCN(C(=O)[C@H]3CCCN(c4cncc5ccccc45)C3)c3ccc(=O)n(CC(=O)OC)c3)cn2)cc1Nc1cccc(-c2ncccn2)c1OC` [I-912, Methyl (S)-2-(5-(1-(isoquinolin-4-yl)-N-(1-(6-((4-((2-methoxy-3-(pyrimidin-2-yl)phenyl)amino)-5-(methylcarbamoyl)pyridin-2-yl)amino)pyridin-3-yl)-1-oxo-5,8,11,14-tetraoxa-2-azahexadecan-16-yl)piperidine-3-carboxamido)-2-oxopyridin-1(2H)-yl)acetate]: the Dmax was under 50% and the DC50 is over 100 nM.
Taken in the same sequence, the figures for `CNC(=O)c1cnc(Nc2ccc(C(=O)NCCOCCOCCN(C(=O)[C@H]3CCCN(c4cncc5ccccc45)C3)c3ccc(=O)n(CC(=O)O)c3)cn2)cc1Nc1cccc(-c2ncccn2)c1OC` [I-915, (S)-2-(5-(1-(isoquinolin-4-yl)-N-(2-(2-(2-(6-((4-((2-methoxy-3-(pyrimidin-2-yl)phenyl)amino)-5-(methylcarbamoyl)pyridin-2-yl)amino)nicotinamido)ethoxy)ethoxy)ethyl)piperidine-3-carboxamido)-2-oxopyridin-1(2H)-yl)acetic acid] were 50 to 75% and 10 to 100 nM.
In the case of `CNC(=O)c1cnc(Nc2ccc(C(=O)NCCOCCOCCOCCN(C(=O)C3CCCN(c4cncc5ccccc45)C3)c3ccc(=O)n(CC(=O)O)c3)cn2)cc1Nc1cccc(-c2ncccn2)c1OC` (stereo not drawn) [I-918], the “TYK2 MSD OCI-LY10 Dmax %” value is listed as “D (D (<50%))” and the 50% degradation concentration (DC50) is over 100 nM.
Consider `CNC(=O)c1cnc(Nc2ccc(C(=O)NCCOCCOCCOCCOCCN(C(=O)C3CCCN(c4cncc5ccccc45)C3)c3ccc(=O)n(CC(=O)O)c3)cn2)cc1Nc1cccc(-c2ncccn2)c1OC` (stereo not drawn) [I-920], for which the “TYK2 MSD OCI-LY10 Dmax %” value is listed as “D (D (<50%))” and the DC50 is over 100 nM.
In the case of `CNc1cc(N2CCc3c(-c4ncc(CN5CC6(CCN(C(=O)c7cc(N8CCC(=O)NC8=O)c(Cl)c(C)n7)CC6(F)F)C5)cc4F)cccc32)nn2c(C(=O)N[C@@H]3C[C@@H]3F)cnc12` [I-930], the “TYK2 MSD OCI-LY10 Dmax %” value was “A (A (>90%))” and the 50% degradation concentration (DC50) was under 1 nM.
As to `CNc1cc(N2CCc3c(-c4ncc(CN5CC6(CCN(C(=O)c7cc(Cl)c(C)c(N8CCC(=O)NC8=O)c7)CC6(F)F)C5)cc4F)cc(F)cc32)nn2c(C(=O)N[C@@H]3C[C@@H]3F)cnc12` [I-944], the “TYK2 MSD OCI-LY10 Dmax %” value was “A (A (>90%))” and the DC50 is under 1 nM.
Taken in the same sequence, the figures for `CNc1cc(N2CCc3c(-c4ncc(CN5CC6(CCN(C(=O)c7cc(C)c(Cl)c(N8CCC(=O)NC8=O)c7)CC6(F)F)C5)cc4F)cc(F)cc32)nn2c(C(=O)N[C@@H]3C[C@@H]3F)cnc12` [I-946] were “A (A (>90%))” and under 1 nM.
Taken in the same sequence, the figures for `CNc1cc(N2CCc3c(-c4cc(C)c(CN5CC6(CCN(C(=O)c7cc(C)c(Cl)c(N8CCC(=O)NC8=O)c7)CC6(F)F)C5)cn4)cccc32)nn2c(C(=O)N[C@@H]3C[C@@H]3F)cnc12` [I-958] were “A (A (>90%))” and under 1 nM.
For `CNc1cc(N2CCc3c(-c4ccc(CN5CC6(CCN(C(=O)c7cc(C)c(Cl)c(N8CCC(=O)NC8=O)c7)CC6(F)F)C5)c(C)n4)cccc32)nn2c(C(=O)N[C@@H]3C[C@@H]3F)cnc12` [I-966], the “TYK2 MSD OCI-LY10 Dmax %” value is reported as “B (B (90 to >75%))” and the DC50 was under 10 nM.
Regarding `CNc1cc(N2CCc3c(-c4ccc(CN5CC6(CCN(C(=O)c7ccc(C(F)(F)F)c(N8CCC(=O)NC8=O)c7)CC6(F)F)C5)cn4)cccc32)nn2c(C(=O)N[C@@H]3C[C@@H]3F)cnc12` [I-969], the “TYK2 MSD OCI-LY10 Dmax %” value was “C (C (75 to 50%))” and the 50% degradation concentration (DC50) is under 10 nM.
As for `CNc1cc(N2CCc3c(-c4ncc(CN5CC6(CCN(C(=O)c7cc(N8CCC(=O)NC8=O)c(C)cn7)CC6(F)F)C5)cc4F)cc(F)cc32)nn2c(C(=O)N[C@@H]3C[C@@H]3F)cnc12` [I-971], the “TYK2 MSD OCI-LY10 Dmax %” value is reported as “B (B (90 to >75%))” and the DC50 is under 1 nM.
For `CNc1cc(N2CCc3c(-c4ccc(CN5CC6(CCN(C(=O)c7ccc(C(F)F)c(N8CCC(=O)NC8=O)c7)CC6(F)F)C5)cn4)cccc32)nn2c(C(=O)N[C@@H]3C[C@@H]3F)cnc12` [I-977], the “TYK2 MSD OCI-LY10 Dmax %” value is reported as “C (C (75 to 50%))” and the DC50 is under 10 nM.
With `CNc1cc(N2CCc3c(-c4ccc(CN5CCC6(CCN(C(=O)c7ccc(C(F)(F)F)c(N8CCC(=O)NC8=O)c7)CC6)C(F)(F)C5)cn4)cccc32)nn2c(C(=O)N[C@@H]3C[C@@H]3F)cnc12` [I-978], the “TYK2 MSD OCI-LY10 Dmax %” value was “D (D (<50%))” and the DC50 is under 10 nM.
Take `CNc1cc(N2CCc3c(-c4ccc(CN5CCC6(CCN(C(=O)c7ccc(C(F)F)c(N8CCC(=O)NC8=O)c7)CC6)C(F)(F)C5)cn4)cccc32)nn2c(C(=O)N[C@@H]3C[C@@H]3F)cnc12` [I-980]: the “TYK2 MSD OCI-LY10 Dmax %” value is listed as “C (C (75 to 50%))” and the 50% degradation concentration (DC50) was under 10 nM.
As for `CNc1cc(N2CCc3c(-c4ncc(CN5CC6(CCN(C(=O)c7cc(C)c(Cl)c(N8CCC(=O)NC8=O)c7)CC6(F)F)C5)cc4F)cccc32)nn2c(C(=O)NC3CC3)cnc12` [I-982], the “TYK2 MSD OCI-LY10 Dmax %” value is “B (B (90 to >75%))” and the 50% degradation concentration (DC50) is under 1 nM.
As for `CNc1cc(N2CCc3c(-c4ncc(CN5CC6(CCN(C(=O)c7cc(C)c(C)c(N8CCC(=O)NC8=O)c7)CC6(F)F)C5)cc4F)cccc32)nn2c(C(=O)N[C@@H]3C[C@@H]3F)cnc12` [I-989], the “TYK2 MSD OCI-LY10 Dmax %” value is “A (A (>90%))” and the DC50 is under 1 nM.
As to `CNc1cc(N2CCc3c(-c4ncc(CN5CC6(CCN(C(=O)c7cc(C)c(Cl)c(N8CCC(=O)NC8=O)c7)CC6(F)F)C5)cc4F)cccc32)nn2c(C(=O)NC3CCCC3)cnc12` [I-990], the “TYK2 MSD OCI-LY10 Dmax %” value was “B (B (90 to >75%))” and the DC50 is under 10 nM.
For `CNc1cc(N2CCc3c(-c4ncc(CN5CC6(CCN(C(=O)c7cc(C)c(Cl)c(N8CCC(=O)NC8=O)c7)CC6(F)F)C5)cc4F)cccc32)nn2c(C(=O)NC3CCC3)cnc12` [I-991], the “TYK2 MSD OCI-LY10 Dmax %” value is reported as “B (B (90 to >75%))” and the DC50 is under 10 nM.
For `CNc1cc(N2CCc3c(-c4ncc(CN5CC6(CCN(C(=O)c7cc(C)c(C)c(N8CCC(=O)NC8=O)c7)CC6(F)F)C5)cc4F)cccc32)nn2c(C(=O)NC3CCC3OC)cnc12` (stereo not drawn) [I-993], the “TYK2 MSD OCI-LY10 Dmax %” value is reported as “A (A (>90%))” and the DC50 is under 1 nM.
Regarding `CNc1cc(N2CCc3c(-c4ncc(CN5CC6(CCN(C(=O)c7cc(F)c(Cl)c(N8CCC(=O)NC8=O)c7)CC6(F)F)C5)cc4F)cccc32)nn2c(C(=O)N[C@@H]3C[C@@H]3F)cnc12` [I-994], the “TYK2 MSD OCI-LY10 Dmax %” value is given as “A (A (>90%))” and the DC50 is under 1 nM.
Taken in the same sequence, the figures for `CNc1cc(N2CCc3c(CN4CCC(N5CCC6(CCN(C(=O)c7cc(C)c(C)c(N8CCC(=O)NC8=O)c7)CC6)CC5)C(F)(F)C4)cccc32)nn2c(C(=O)N[C@@H]3CC[C@H]3OC)cnc12` (stereo partly drawn) [I-995] were “A (A (>90%))” and under 1 nM.
On to `CNc1cc(N2CCc3c(-c4ccc(CN5CCC6(CCN(C(=O)c7cc(C)c(Cl)c(N8CCC(=O)NC8=O)c7)CC6)C(F)(F)C5)cn4)cccc32)nn2c(C(=O)NC3CCC3(F)F)cnc12` (stereo not drawn) [I-996], for which the “TYK2 MSD OCI-LY10 Dmax %” value is recorded as “B (B (90 to >75%))” and the DC50 is under 10 nM.
Taken in the same sequence, the figures for `CNc1cc(N2CCc3c(-c4ccc(OC5CC6(CCN(C(=O)c7cc(C)c(Cl)c(N8CCC(=O)NC8=O)c7)CC6)C5)cn4)cccc32)nn2c(C(=O)N[C@@H]3CC[C@H]3OC)cnc12` [I-997] were “A (A (>90%))” and under 1 nM.
On to `CNc1cc(N2CCc3c(-c4ccc(CN5CCC6(CCN(C(=O)c7cc(C)c(Cl)c(N8CCC(=O)NC8=O)c7)CC6)C(F)(F)C5)cn4)cccc32)nn2c(C(=O)NC3CCCC3(F)F)cnc12` (stereo not drawn) [I-998], for which the “TYK2 MSD OCI-LY10 Dmax %” value is reported as “C (C (75 to 50%))” and the half-maximal degradation concentration (DC50) lay in the range of 10 to 100 nM.
As for `CNc1cc(N2CCc3c(CN4CCC(N5CCC6(CCN(C(=O)c7cc(Cl)c(C)c(N8CCC(=O)NC8=O)c7)CC6)CC5)C(F)(F)C4)cccc32)nn2c(C(=O)NC3CCC3OC)cnc12` (stereo not drawn) [I-1000], the “TYK2 MSD OCI-LY10 Dmax %” value is listed as “A (A (>90%))” and the DC50 was under 1 nM.
With `CNc1cc(N2CCc3c(-c4ncc(CN5CC6(CCN(C(=O)c7ccc(C)c(N8CCC(=O)NC8=O)c7)CC6(F)F)C5)cc4F)cccc32)nn2c(C(=O)N[C@@H]3CC[C@H]3OC)cnc12` [I-1004], the “TYK2 MSD OCI-LY10 Dmax %” value is reported as “A (A (>90%))” and the DC50 is under 1 nM.
`CNc1cc(N2CCc3c(-c4ncc(CN5CC6(CCN(C(=O)c7cc(N8CCC(=O)NC8=O)c(Cl)cc7F)CC6(F)F)C5)cc4F)cccc32)nn2c(C(=O)NC3CCC3OC)cnc12` (stereo not drawn) [I-1005]: the “TYK2 MSD OCI-LY10 Dmax %” value is given as “A (A (>90%))” and the half-maximal degradation concentration (DC50) was under 1 nM.
As for `CNc1cc(N2CCc3c(-c4ccc(CN5CCC(N6CCC(COc7ccc(Cl)c(N8CCC(=O)NC8=O)c7)CC6)CC5)cn4)cccc32)nn2c(C(=O)NC3CCC3OC)cnc12` (stereo not drawn) [I-1006], the “TYK2 MSD OCI-LY10 Dmax %” value was “B (B (90 to >75%))” and the DC50 was under 10 nM.
Consider `CNc1cc(N2CCc3c(-c4ncc(CN5CC6(CCN(C(=O)c7cc(N8CCC(=O)NC8=O)c(C)cc7F)CC6(F)F)C5)cc4F)cccc32)nn2c(C(=O)NC3CCC3OC)cnc12` (stereo not drawn) [I-1007], for which the “TYK2 MSD OCI-LY10 Dmax %” value is recorded as “A (A (>90%))” and the DC50 is under 1 nM.
Regarding `CNc1cc(N2CCc3c(-c4ncc(CN5CC6(CCN(C(=O)c7cc(Cl)c(C)c(N8CCC(=O)NC8=O)c7)CC6(F)F)C5)cc4F)cccc32)nn2c(C(=O)N[C@@H]3C[C@@H]3F)cnc12` [I-1008, 6-(4-(5-((7-(3-chloro-5-(2,4-dioxotetrahydropyrimidin-1(2H)-yl)-4-methylbenzoyl)-5,5-difluoro-2,7-diazaspiro[3.5]nonan-2-yl)methyl)-3-fluoropyridin-2-yl)indolin-1-yl)-N-((1R,2S)-2-fluorocyclopropyl)-8-(methylamino)imidazo[1,2-b]pyridazine-3-carboxamide], the greatest degradation seen (Dmax) was over 90% and the DC50 was under 1 nM.
